Settings: 323.21 K, Fluid (supercritical or subcritical phases), Vibrating tube method

FC(F)=C(F)C(F)(F)F [hexafluoropropene]
Settings | mass density [kg/m3]
17.7 kPa | 0.97
21.7 kPa | 1.12
25.1 kPa | 1.38
28.9 kPa | 1.62
32.8 kPa | 1.83
36.6 kPa | 2.07
40.3 kPa | 2.22
44.1 kPa | 2.51
47.8 kPa | 2.68
51.6 kPa | 2.99
55.2 kPa | 3.08
58.9 kPa | 3.32
62.6 kPa | 3.51
66.1 kPa | 3.74
69.7 kPa | 3.92
73.2 kPa | 4.09
76.7 kPa | 4.26
80.2 kPa | 4.49
83.7 kPa | 4.72
87.1 kPa | 4.86
90.6 kPa | 5.07
94.4 kPa | 5.41
98.1 kPa | 5.54
101.5 kPa | 5.74
105.2 kPa | 6.02
112.5 kPa | 6.44
116.2 kPa | 6.58
119.7 kPa | 6.8
123.2 kPa | 7
126.7 kPa | 7.23
130.2 kPa | 7.42
133.8 kPa | 7.66
137.6 kPa | 7.92
141.6 kPa | 8.08
145.4 kPa | 8.32
149.3 kPa | 8.52
153.2 kPa | 8.77
157.1 kPa | 8.98
160.9 kPa | 9.22
164.8 kPa | 9.47
168.8 kPa | 9.71
172.6 kPa | 9.88
176.5 kPa | 10.13
180.3 kPa | 10.38
184.3 kPa | 10.62
188.1 kPa | 10.76
195.8 kPa | 11.28
199.7 kPa | 11.49
203.6 kPa | 11.86
207.4 kPa | 12.01
211.1 kPa | 12.24
215 kPa | 12.39
218.8 kPa | 12.6
222.7 kPa | 12.84
226.4 kPa | 13.16
230.2 kPa | 13.39
233.8 kPa | 13.5
237.7 kPa | 13.84
241.4 kPa | 14.08
245.2 kPa | 14.29
249 kPa | 14.46
252.7 kPa | 14.72
260.3 kPa | 15.25
268.1 kPa | 15.67
272.2 kPa | 15.98
276.4 kPa | 16.15
280.6 kPa | 16.35
284.7 kPa | 16.67
288.7 kPa | 16.87
292.9 kPa | 17.17
297.1 kPa | 17.47
301.3 kPa | 17.8
305.4 kPa | 17.98
309.6 kPa | 18.21
313.9 kPa | 18.45
318 kPa | 18.81
322 kPa | 19
326.2 kPa | 19.25
330.3 kPa | 19.52
334.5 kPa | 19.75
338.7 kPa | 20.05
342.9 kPa | 20.26
347 kPa | 20.58
351.2 kPa | 20.86
355.4 kPa | 21.13
359.5 kPa | 21.34
363.6 kPa | 21.63
367.7 kPa | 21.82
371.9 kPa | 22.12
376 kPa | 22.33
380 kPa | 22.69
384.1 kPa | 22.94
388.2 kPa | 23.18
392.3 kPa | 23.49
396.4 kPa | 23.69
404.4 kPa | 24.26
408.5 kPa | 24.53
412.5 kPa | 24.78
416.5 kPa | 25
420.6 kPa | 25.28
424.6 kPa | 25.54
432.5 kPa | 26.08
436.6 kPa | 26.31
444.4 kPa | 26.88
448.4 kPa | 27.13
487.5 kPa | 29.75
499 kPa | 30.39
510.4 kPa | 31.18
521.8 kPa | 31.98
533.3 kPa | 32.74
544.4 kPa | 33.53
555.6 kPa | 34.31
566.8 kPa | 35.09
577.8 kPa | 35.78
588.8 kPa | 36.55
599.7 kPa | 37.33
610.7 kPa | 38.21
621.5 kPa | 38.96
632.3 kPa | 39.67
643 kPa | 40.4
653.8 kPa | 41.25
664.3 kPa | 42.12
675 kPa | 42.78
687.2 kPa | 43.61
697.7 kPa | 44.47
708.1 kPa | 45.16
721.9 kPa | 46.18
735.5 kPa | 47.22
747.6 kPa | 48.18
759.6 kPa | 49.01
769.7 kPa | 49.86
784.6 kPa | 50.99
799.5 kPa | 52.13
814.1 kPa | 53.28

From the NIST ThermoML archive (doi:10.1021/je900596d)
